According to the NIST ThermoML archive (doi:10.1021/je060271a):

Settings: Liquid, Vibrating tube method

CCCCC(=O)OCC(COC(=O)CCCC)(COC(=O)CCCC)COC(=O)CCCC [pentaerythritol tetrapentanoate]
Settings | mass density [kg/m3]
303.15 K, 29848 kPa | 1028.9
303.15 K, 29879 kPa | 1028.8
303.15 K, 29916 kPa | 1029
303.15 K, 29948 kPa | 1028.9
303.15 K, 29979 kPa | 1029
303.15 K, 30016 kPa | 1028.9
303.15 K, 30047 kPa | 1028.9
303.15 K, 30079 kPa | 1029
303.15 K, 30118 kPa | 1029
303.15 K, 30150 kPa | 1029.1
303.15 K, 30185 kPa | 1029
303.15 K, 30217 kPa | 1029
303.15 K, 30249 kPa | 1029.1
303.15 K, 30286 kPa | 1029
303.15 K, 30319 kPa | 1029.1
303.15 K, 30352 kPa | 1029.1
303.15 K, 30390 kPa | 1029
303.15 K, 30423 kPa | 1029.2
303.15 K, 30461 kPa | 1029.1
303.15 K, 30493 kPa | 1029.2
303.15 K, 30526 kPa | 1029.2
303.15 K, 30566 kPa | 1029.2
303.15 K, 30598 kPa | 1029.2
303.15 K, 30631 kPa | 1029.2
303.15 K, 30665 kPa | 1029.4
303.15 K, 30705 kPa | 1029.3
303.15 K, 30738 kPa | 1029.3
303.15 K, 30777 kPa | 1029.3
303.15 K, 30810 kPa | 1029.3
303.15 K, 30844 kPa | 1029.4
303.15 K, 30884 kPa | 1029.4
303.15 K, 30917 kPa | 1029.4
303.15 K, 30951 kPa | 1029.4
303.15 K, 30991 kPa | 1029.5
303.15 K, 31025 kPa | 1029.5
303.15 K, 31060 kPa | 1029.6
303.15 K, 31101 kPa | 1029.5
303.15 K, 31135 kPa | 1029.5
303.15 K, 31170 kPa | 1029.5
303.15 K, 31204 kPa | 1029.6
303.15 K, 31246 kPa | 1029.7
303.15 K, 31280 kPa | 1029.5
303.15 K, 31315 kPa | 1029.6
303.15 K, 31350 kPa | 1029.6
303.15 K, 31392 kPa | 1029.7
303.15 K, 31427 kPa | 1029.7
303.15 K, 31462 kPa | 1029.8
303.15 K, 31504 kPa | 1029.8
303.15 K, 31540 kPa | 1029.7
303.15 K, 31576 kPa | 1029.8
303.15 K, 31610 kPa | 1029.8
303.15 K, 31653 kPa | 1029.9
303.15 K, 31688 kPa | 1029.9
303.15 K, 31731 kPa | 1029.9
303.15 K, 31767 kPa | 1029.8
303.15 K, 31803 kPa | 1029.9
303.15 K, 31846 kPa | 1030
303.15 K, 31882 kPa | 1030
303.15 K, 31918 kPa | 1029.9
303.15 K, 31954 kPa | 1030
303.15 K, 31996 kPa | 1030
303.15 K, 32033 kPa | 1030
303.15 K, 32078 kPa | 1030.1
303.15 K, 32115 kPa | 1030.2
303.15 K, 32152 kPa | 1030.1
303.15 K, 32188 kPa | 1030.1
303.15 K, 32232 kPa | 1030.1
303.15 K, 32269 kPa | 1030.2
303.15 K, 32306 kPa | 1030.2
303.15 K, 32351 kPa | 1030.4
303.15 K, 32387 kPa | 1030.3
303.15 K, 32432 kPa | 1030.3
303.15 K, 32470 kPa | 1030.3
303.15 K, 32507 kPa | 1030.3
303.15 K, 32544 kPa | 1030.2
303.15 K, 32590 kPa | 1030.4
303.15 K, 32628 kPa | 1030.3
303.15 K, 32667 kPa | 1030.6
303.15 K, 32714 kPa | 1030.4
303.15 K, 32752 kPa | 1030.4
303.15 K, 32798 kPa | 1030.6
303.15 K, 32838 kPa | 1030.5
303.15 K, 32877 kPa | 1030.5
303.15 K, 32926 kPa | 1030.5
303.15 K, 32968 kPa | 1030.5
303.15 K, 33012 kPa | 1030.6
303.15 K, 33064 kPa | 1030.6
303.15 K, 33109 kPa | 1030.6
303.15 K, 33144 kPa | 1030.7
303.15 K, 33166 kPa | 1030.7
303.15 K, 33187 kPa | 1030.7
303.15 K, 33214 kPa | 1030.8
303.15 K, 33237 kPa | 1030.6
303.15 K, 33258 kPa | 1030.7
303.15 K, 33284 kPa | 1030.8
303.15 K, 33307 kPa | 1030.8
303.15 K, 33354 kPa | 1030.8
303.15 K, 33377 kPa | 1030.7
303.15 K, 33404 kPa | 1030.7
303.15 K, 33423 kPa | 1030.9
303.15 K, 33449 kPa | 1030.8
303.15 K, 33472 kPa | 1030.7
303.15 K, 33494 kPa | 1030.9
303.15 K, 33521 kPa | 1030.8
303.15 K, 33544 kPa | 1030.8
303.15 K, 33594 kPa | 1030.9
303.15 K, 33616 kPa | 1030.9
303.15 K, 33643 kPa | 1031
303.15 K, 33666 kPa | 1031
303.15 K, 33687 kPa | 1031
303.15 K, 33715 kPa | 1030.9
303.15 K, 33740 kPa | 1031
303.15 K, 33763 kPa | 1031
303.15 K, 33790 kPa | 1031.1
303.15 K, 33813 kPa | 1031
303.15 K, 33836 kPa | 1031
303.15 K, 33862 kPa | 1031
303.15 K, 33886 kPa | 1031.1
303.15 K, 33911 kPa | 1031
303.15 K, 33938 kPa | 1031.1
303.15 K, 33963 kPa | 1031
303.15 K, 33987 kPa | 1031.2
303.15 K, 34014 kPa | 1031.2
303.15 K, 34041 kPa | 1031.1
303.15 K, 34066 kPa | 1031.2
303.15 K, 34091 kPa | 1031.2
303.15 K, 34122 kPa | 1031.2
303.15 K, 34148 kPa | 1031.3
303.15 K, 34176 kPa | 1031.2
303.15 K, 34209 kPa | 1031.1
303.15 K, 34236 kPa | 1031.2
303.15 K, 34272 kPa | 1031.3
303.15 K, 34293 kPa | 1031.3
303.15 K, 34298 kPa | 1031.3
303.15 K, 34306 kPa | 1031.3
303.15 K, 34335 kPa | 1031.4
303.15 K, 34345 kPa | 1031.4
303.15 K, 34355 kPa | 1031.4
303.15 K, 34361 kPa | 1031.3
303.15 K, 34369 kPa | 1031.2
303.15 K, 34375 kPa | 1031.4
303.15 K, 34382 kPa | 1031.4
303.15 K, 34388 kPa | 1031.3
303.16 K, 663.45 kPa | 1011.3
303.16 K, 665.18 kPa | 1011.4
303.16 K, 666.06 kPa | 1011.3
303.16 K, 670.92 kPa | 1011.3
303.16 K, 671.95 kPa | 1011.3
303.16 K, 672.66 kPa | 1011.2
303.16 K, 673.71 kPa | 1011.2
303.16 K, 674.57 kPa | 1011.2
303.16 K, 683.79 kPa | 1011.3
303.16 K, 684.84 kPa | 1011.3
303.16 K, 687.26 kPa | 1011.2
303.16 K, 700.64 kPa | 1011.3
303.16 K, 702.03 kPa | 1011.2
303.16 K, 702.73 kPa | 1011.4
303.16 K, 732.61 kPa | 1011.3
303.16 K, 790.98 kPa | 1011.3
303.16 K, 792.36 kPa | 1011.4
